Drawing on patent US9187455B2, “Substituted pyridazines as PDE10A inhibitors” (Hoffmann-La Roche Inc., priority 2009, dated 2015), this text covers IC50 for 29 compounds.

This assay deals with T1, PDE10A2 (Homo sapiens, UniProt Q9Y233).
T1 construct: residues serine 449 to aspartate 789; His6 (H6) with Gateway linker and thrombin cleavage site (N, cleaved yes); made in house; host or cells: E. coli BL21(DE3) pLysS
T1 sequence (Q9Y233 715-1055): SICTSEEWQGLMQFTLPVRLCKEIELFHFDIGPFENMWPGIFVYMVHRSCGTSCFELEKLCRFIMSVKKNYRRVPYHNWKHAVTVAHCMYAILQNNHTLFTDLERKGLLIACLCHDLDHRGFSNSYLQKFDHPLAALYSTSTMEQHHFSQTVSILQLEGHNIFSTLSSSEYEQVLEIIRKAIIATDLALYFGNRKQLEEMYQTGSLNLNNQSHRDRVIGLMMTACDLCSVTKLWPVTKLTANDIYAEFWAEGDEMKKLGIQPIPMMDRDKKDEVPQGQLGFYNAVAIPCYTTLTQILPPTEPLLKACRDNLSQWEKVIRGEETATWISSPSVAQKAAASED
As to the kind of experiment: PDE10A2 Scintillation Proximity Assay (SPA), [3H]-cGMP hydrolysis. In kind it is biochemical. The note with it: catalytic domain of human PDE10A2 (S449-D789), 0.25 nM enzyme, 50 nM cGMP + 50 nM [3H]-cGMP, 30 minutes at room temperature; read-out: PDE10A2 inhibition IC50. The protocol:
The following tests were carried out in order to determine the activity of the compounds of the present invention. PDE10 activity of the compounds of the present invention is determined using a Scintillation Proximity Assay (SPA)-based method similar to the one previously described (Fawcett, L. et al., ProcNatl Acad Sci USA (2000) 97(7):3702-3707).
PDE10A1 and PDE10A2 are two splice variants of PDE10A. There are these 2 splice variants known, which differ in the N-terminal part of the protein. The catalytic domains of PDE10A1 and PDE10A2 are identical. The assay for PDE10A2 described below is therefore also representative for PDE10A1 and also for PDE10A in general.
The PDE10A2 assay was performed in a two step procedure in 96-well micro titer plates. The reaction mixture of 80 μl contained 20 mM HEPES/10 mM MgCl2/[…] (pH 7.5), 50 nM cGMP (Sigma) and 50 nM [^3H]-cGMP (GE Healthcare), 0.25 nM PDE10A2 with or without a specific test compound. A range of concentrations of the potential inhibitor was used to generate data for calculating the concentration of inhibitor resulting in 50% of the effect (e.g. IC50, the concentration of the competitor inhibiting PDE10A2 activity 50%). Non-specific activity was tested without the enzyme. The reaction was initiated by addition of the substrate solution (cGMP and [^3H]-cGMP) and allowed to progress for 30 minutes at room temperature. The reaction was terminated by transferring 50 μl of the reaction mixture into an OptiPlate (Perkin Elmer) containing 25 μl of YSi-SPA scintillation beads (GE Healthcare) in 18 mM zinc sulphate solution (stop reagent). After 1 h under shaking, the plate was centrifuged one minute at 1000 rpm to allow beads to settle. Afterwards, radioactive counts were measured on a Perkin Elmer TopCount Scintillation plate reader.
The catalytic domain of human PDE10A2, residues serine 449 to aspartate 789, was amplified by PCR using cDNA (Origene) and the oligonucleotides 5′-GGGGACAAGTTTGT […]-3′ (with AttB1 recombination site in bold and thrombin protease cleavage site in italics) and 5′-[…]-3′ (with AttB2 recombination site in bold) which conferred Gateway recombination sites. The PCR product was used in a BP recombination reaction with pDONR221 to generate pENTR Thm-PDE10A2(S449-D789) which was DNA sequence verified and then used in an LR recombination reaction with a Gateway modified version of pET11a. The resulting expression vector, placT7.2H6-(gwl)-Thm-PDE10A2(S449-D789) was DNA sequence confirmed and transformed into E. coli strain BL21(DE3) pLysS and recombinant protein was produced in TB medium at 20° C. by induction to a final IPTG concentration of 0.5 mM at an optical density of 1.0 at 600 nm for 20 hours. About 30% of the protein was in the soluble fraction of the cell homogenate. The protein was purified using sequential chromatography on Ni-NTA and HiTrapQ/HiTrapS. After thrombin digest at room temperature a HiTrapChelating/HiTrap Benzamindin chromatography removed impurities, uncleaved protein and thrombin. Final purification of PDE10A2(S449-D789) was performed on a Superdex 75 size exclusion chromatography equilibrated with 25 mM HEPES pH 8.4, 0.15 M NaCl. The yield of pure protein was 2 mg/liter of culture volume is relatively low. The purity of the protein was >95%, monomeric and monodisperse as shown by SDS-PAGE, HPLC and analytical ultracentrifugation.
By IC50 is commonly meant the concentration that gives 50% inhibition. `O=c1ccn(-c2cncc3ccccc23)nc1-c1ccnn1-c1ccccc1F` [Example 65, 3-[2-(2-Fluoro-phenyl)-2H-pyrazol-3-yl]-1-isoquinolin-4-yl-1H-pyridazin-4-one]: the IC50 worked out at 144 nM.

As to `O=c1ccn(-c2cncc3ccccc23)nc1-c1ccnn1-c1cccc(Cl)c1` [Example 66, 3-[2-(3-Chloro-phenyl)-2H-pyrazol-3-yl]-1-isoquinolin-4-yl-1H-pyridazin-4-one], the IC50 was 100 nM.

Take `O=c1ccn(-c2cncc(C(F)(F)F)c2)nc1-c1ccnn1-c1cccc(Cl)c1` [Example 67, 3-[2-(3-Chloro-phenyl)-2H-pyrazol-3-yl]-1-(5-trifluoromethyl-pyridin-3-yl)-1H-pyridazin-4-one]: the IC50 worked out at 56 nM.

Take `O=c1ccn(-c2cncc(C(F)(F)F)c2)nc1-c1ccnn1-c1ccccc1F` [Example 68, 3-[2-(2-Fluoro-phenyl)-2H-pyrazol-3-yl]-1-(5-trifluoromethyl-pyridin-3-yl)-1H-pyridazin-4-one]: the IC50 was 178 nM.

For `O=c1ccn(-c2ccnc(Cl)c2)nc1-c1ccnn1-c1ccnc2cc(Cl)ccc12` [Example 69, 1-(2-Chloro-pyridin-4-yl)-3-[2-(7-chloro-quinolin-4-yl)-2H-pyrazol-3-yl]-1H-pyridazin-4-one], the IC50 turned out to be 57 nM.

In the case of `O=c1ccn(-c2cncc(Cl)c2)nc1-c1ccnn1-c1ccnc2cc(Cl)ccc12` [Example 70, 1-(5-Chloro-pyridin-3-yl)-3-[2-(7-chloro-quinolin-4-yl)-2H-pyrazol-3-yl]-1H-pyridazin-4-one], the IC50 was 253 nM.

`O=c1ccn(-c2cncc(C(F)(F)F)c2)nc1-c1ccnn1-c1ccnc2ccccc12` [Example 71, 3-(2-Quinolin-4-yl-2H-pyrazol-3-yl)-1-(5-trifluoromethyl-pyridin-3-yl)-1H-pyridazin-4-one]: the IC50 amounted to 56 nM.

On to `O=c1ccn(-c2ccncc2)nc1-c1ccnn1-c1ccnc2ccc(Cl)cc12` [Example 72, 3-[2-(6-Chloro-quinolin-4-yl)-2H-pyrazol-3-yl]-1-pyridin-4-yl-1H-pyridazin-4-one], for which the IC50 is 78 nM.

As to `O=c1ccn(-c2ccncc2)nc1-c1ccnn1-c1cncc2ccccc12` [Example 73, 3-(2-Isoquinolin-4-yl-2H-pyrazol-3-yl)-1-pyridin-4-yl-1H-pyridazin-4-one], the IC50 came to 188 nM.

Turning to `O=c1ccn(-c2cncc(OC(F)F)c2)nc1-c1ccnn1-c1ccccc1F` [Example 74, 1-(5-Difluoromethoxy-pyridin-3-yl)-3-[2-(2-fluoro-phenyl)-2H-pyrazol-3-yl]-1H-pyridazin-4-one], the concentration for half-maximal inhibition (IC50) was determined as 27 nM.

On to `O=c1ccn(-c2ccc(C(F)(F)F)nc2)nc1-c1ccnn1-c1ccccc1F` [Example 75, 3-[2-(2-Fluoro-phenyl)-2H-pyrazol-3-yl]-1-(6-trifluoromethyl-pyridin-3-yl)-1H-pyridazin-4-one], for which the IC50 is 120 nM.

Consider `N#Cc1ccc(-n2ccc(=O)c(-c3ccnn3-c3ccccc3F)n2)cn1` [Example 76, 5-{3-[2-(2-Fluoro-phenyl)-2H-pyrazol-3-yl]-4-oxo-4H-pyridazin-1-yl}-pyridine-2-carbonitrile], for which the IC50 was found to be 619 nM.

`O=c1ccn(-c2ccc(Cl)nc2)nc1-c1ccnn1-c1ccccc1F` [Example 77, 1-(6-Chloro-pyridin-3-yl)-3-[2-(2-fluoro-phenyl)-2H-pyrazol-3-yl]-1H-pyridazin-4-one]: the IC50 turned out to be 183 nM.

Turning to `O=c1ccn(-c2cnc3ccccc3c2)nc1-c1ccnn1-c1ccccc1F` [Example 78, 3-[2-(2-Fluoro-phenyl)-2H-pyrazol-3-yl]-1-quinolin-3-yl-1H-pyridazin-4-one], the IC50 amounted to 38 nM.

`Cc1cc(-n2ccc(=O)c(-c3ccnn3-c3ccnc4ccccc34)n2)ccn1` [Example 79, 1-(2-Methyl-pyridin-4-yl)-3-(2-quinolin-4-yl-2H-pyrazol-3-yl)-1H-pyridazin-4-one]: the IC50 came to 12 nM.

For `O=c1ccn(-c2ccc(C(F)(F)F)nc2)nc1-c1ccnn1-c1cccc2ncccc12` [Example 80, 3-(2-Quinolin-5-yl-2H-pyrazol-3-yl)-1-(6-trifluoromethyl-pyridin-3-yl)-1H-pyridazin-4-one], the IC50 was determined as 72 nM.

Take `O=c1ccn(-c2ccc(C(F)(F)F)nc2)nc1-c1ccnn1-c1cccc2cnccc12` [Example 81, 3-(2-Isoquinolin-5-yl-2H-pyrazol-3-yl)-1-(6-trifluoromethyl-pyridin-3-yl)-1H-pyridazin-4-one]: the IC50 is 107 nM.

Regarding `Cc1cncc(-n2ccc(=O)c(-c3ccnn3-c3ccnc4cc(Cl)ccc34)n2)c1` [Example 82, 3-[2-(7-Chloro-quinolin-4-yl)-2H-pyrazol-3-yl]-1-(5-methyl-pyridin-3-yl)-1H-pyridazin-4-one], the IC50 is 102 nM.

For the compound `Cc1cc(-n2ccc(=O)c(-c3ccnn3-c3cccc4ncccc34)n2)ccn1` [Example 83, 1-(2-Methyl-pyridin-4-yl)-3-(2-quinolin-5-yl-2H-pyrazol-3-yl)-1H-pyridazin-4-one], the IC50 was 134 nM.

Consider `O=c1ccn(-c2cccnc2)nc1-c1ccnn1-c1cccc2ncccc12` [Example 84, 1-Pyridin-3-yl-3-(2-quinolin-5-yl-2H-pyrazol-3-yl)-1H-pyridazin-4-one], for which the IC50 worked out at 169 nM.

`Cc1cc(-n2ccc(=O)c(-c3ccnn3-c3cccc4cnccc34)n2)ccn1` [Example 85, 3-(2-Isoquinolin-5-yl-2H-pyrazol-3-yl)-1-(2-methyl-pyridin-4-yl)-1H-pyridazin-4-one]: the IC50 came out at 46 nM.

`O=c1ccn(-c2cccnc2)nc1-c1ccnn1-c1cccc2cnccc12` [Example 86, 3-(2-Isoquinolin-5-yl-2H-pyrazol-3-yl)-1-pyridin-3-yl-1H-pyridazin-4-one]: the IC50 is 50 nM.

With `N#Cc1cncc(-n2ccc(=O)c(-c3ccnn3-c3ccccc3F)n2)c1` [Example 87, 5-{3-[2-(2-Fluoro-phenyl)-2H-pyrazol-3-yl]-4-oxo-4H-pyridazin-1-yl}-nicotinonitrile], the IC50 was found to be 477 nM.

As to `Cc1cc(-n2nccc2-c2nn(-c3ccc(Cl)nc3)ccc2=O)ccn1` [Example 88, 1-(6-Chloro-pyridin-3-yl)-3-[2-(2-methyl-pyridin-4-yl)-2H-pyrazol-3-yl]-1H-pyridazin-4-one], the IC50 was 1130 nM.

Turning to `O=c1ccn(-c2cncc(OC(F)F)c2)nc1-c1ccnn1-c1cccc2ncccc12` [Example 89, 1-(5-Difluoromethoxy-pyridin-3-yl)-3-(2-quinolin-5-yl-2H-pyrazol-3-yl)-1H-pyridazin-4-one], the IC50 came to 46 nM.

On to `Cc1cncc(-n2ccc(=O)c(-c3ccnn3-c3ccccc3F)n2)c1` [Example 90, 3-[2-(2-Fluoro-phenyl)-2H-pyrazol-3-yl]-1-(5-methyl-pyridin-3-yl)-1H-pyridazin-4-one], for which the IC50 came to 90 nM.

Turning to `O=c1ccn(-c2ccncc2)nc1-c1ccnn1-c1ccnc2cc(Cl)ccc12` [Example 91, 3-[2-(7-Chloro-quinolin-4-yl)-2H-pyrazol-3-yl]-1-pyridin-4-yl-1H-pyridazin-4-one], the IC50 is 32 nM.

Take `Cc1cc(-n2ccc(=O)c(-c3ccnn3-c3ccccc3F)n2)ccn1` [Example 93, 3-[2-(2-Fluoro-phenyl)-2H-pyrazol-3-yl]-1-(2-methyl-pyridin-4-yl)-1H-pyridazin-4-one]: the IC50 came out at 206 nM.

Take `O=c1ccn(-c2ccnc(C(F)(F)F)c2)nc1-c1ccnn1-c1ccccc1F` [Example 94, 3-[2-(2-Fluoro-phenyl)-2H-pyrazol-3-yl]-1-(2-trifluoromethyl-pyridin-4-yl)-1H-pyridazin-4-one]: the IC50 was 281 nM.
